Each structure is given as a SMILES string. Entries after “also recorded” stand apart in the source; their conditions may differ. Structures can show the parent of a compound that is named as a salt.

Results on two compounds are retold here after US20240382517A1, “Topical Pharmaceutical Skin Composition for the Delivery of Nitric Oxide in Combination with Other Topical Dermatologic Agents” (NOxy Health Products, Inc., priority 2023, published 2024).

What all share (type): physicochemical
A short description of series [1]: NOx production of mixed foams, Thermoscientific 42iQLS Gas Analyzer. The note with it: 0.4 M, 0.5 M, 0.6 M ascorbic acid as first (A) solution + second (B) solution without BAC; compared to citric acid; FIG. 4. The protocol: Methods. Solutions A and B were agitated by vigorous shaking until they produced foams. Then, two pumps of foam A (from Solution A) and foam B (from Solution B) were added to a weigh boat, and then the resulting mixture was thoroughly mixed with a gloved finger for five seconds. The resulting mixture was then placed in the sample chamber for measurement using a Thermoscientific 42iQLS Gas Analyzer. The measured concentration of the NOx produced was recorded every ten seconds. Using the Ideal Gas Law, the mass in mols of NOx was calculated.
The first (A) solution was prepared as described in Example 1, except BAC was not included. The second (B) solution was prepared by dissolving salicylic acid in a stoichiometric amount of sodium hydroxide dissolved in water. Once all of the salicylic acid was dissolved, sodium nitrite and coco betaine were added. The first (A) and second (B) solutions were then mixed. A foam was produced upon the mixing/priming of the first (A) solution and the second (B) solution.
Three solutions of ascorbic acid (0.4 M, 0.5 M, and 0.6 M) were prepared and used as first (A) solutions. The second (B) solution was as provided in Example 1 except that BAC was not included. The solutions were poured into small foam dispensers. One squirt of foam from each of the first (A) solution and the second (B) solution was combined in a weight boat and NOx formation was measured.

Series [2] is described as follows: NOx release from mixed liquids, Thermoscientific 42iQLS Gas Analyzer. The source says:
For the NO release testing, one mL of each solution was dispensed into a weight boat using the pipetter. A new pipette tip was used for each aliquot. For NO release measurements, the weigh boat was then placed into the sampling bin of a Thermoscientific 42iQLS Gas Analyzer, and the lid placed on top. The analyzer began measuring NOx released from the mixed liquid in the weigh boat as indicated by the rise of both the NO and NO2 measurements on the screen of the analyzer, a 10-minute timer was started.
Once the datalogger had collected 70 time points (700 seconds) of data: • 1. the data logging program was halted • 2. The weigh boat was removed from the chamber and disposed of in a separate room • 3. A fan was used to blow fresh air into the testing chamber for 10 seconds • 4. The next test was conducted when the analyzer measured less than 5 ppm total NOx […]
About 1 mL of Manuka honey was mixed with 1 mL of standard second (B) solution (not including BAC). […]

Series [3] is described as follows: pH of lidocaine HCl solution, calibrated lab pH meter. The settings on record: 4 percent solution in water. As to the method: A 4% w/w solution of lidocaine in deionized water was prepared. The pH of the solution was measured using a conventional calibrated lab pH meter.
Series [4] is described as follows: Mixing of lidocaine HCl solution into the first (A) solution in a stable manner. The note with it: first (A) solution not including BAC; monitoring time three minutes. The source says:
The monitoring time was three minutes.

Regarding `O=C1O[C@H]([C@@H](O)CO)C(O)=C1O` [ascorbic acid], the “production of NOx” value in series [1] is reported as “lower levels of production of NOx than citric acid”.

Take `CCN(CC)CC(=O)Nc1c(C)cccc1C` [lidocaine HCl]: the NOx release entry in series [2] (4 percent lidocaine HCl solution mixed with second (B) solution (no BAC) only, FIG. 6) is on record as “NO was produced; also recorded: Only a small amount of NOx was released”; in series [2] (4 percent lidocaine HCl solution mixed with standard first (A) and second (B) solutions (no BAC), FIG. 7) it was “NO was also produced; also recorded: a large amount of NOx was released”. In series [3], this compound had a pH of 4.16. In series [4], the “reaction on mixing with the standard first (A) solution” value is “No reaction was observed”.
